Converted amounts (≈) assume the structure as drawn.
Legend:
[1] = pH solubility profile of Compound 1 in buffers, water, HCl and biorelevant media; format: physicochemical
[2] = Solubility of Compound 1 in alternative excipients/solvents (liquid formulations, cranberry juice dilution); format: physicochemical
Description: Liquid formulations of PEG400/EtOH and Compound 1 can be prepared using general methods for making liquid formulations known in the art. For example, Compound 1 was dissolved in EtOH with agitation and ambient temperature, then the desired amount of PEG400 was added to achieve the desired ratios.
The liquid formulations of the present example are prepared as described in Example 2. When additional excipients are included, they are added after dissolution of Compound 1 in ethanol.

[3] = Pharmacokinetics of solid solution capsules in dogs; conditions: male, beagle, dog, in vivo, po, 20 mg, PO 20 mg/dog
Description: Solid Solution capsules of Compound 1 comprising 50:50 macrogol-40-glycerol hydroxystearate:PEG-4000 or 100% macrogol-40-glycerol hydroxystearate were prepared using the general procedures described in Example 4. The PEG heating steps were omitted for the 100% macrogol-40 glycerol hydroxystearate formulations. These formulations were dosed in beagle dogs (male) at 20 mg per dog to evaluate the pharmacokinetic profile. The results are summarized in Table 11 (below, and shown in FIG. 8 (50:50 macrogol-40-glycerol hydroxystearate:PEG-4000 and FIG. 9 (100% macrogol-40-glycerol hydroxystearate).

[4] = Food effect study (high fat, high calorie meal) in healthy volunteers; format: in vivo, human; conditions: for Tmax / AUC(0-inf) / AUC(0-t) / Cmax: human, plasma, 30 mg; for AUC(0-inf): read-out: AUC0-inf, Geometric LSM; for AUC(0-t): read-out: AUC0-t, Geometric LSM; for Cmax: read-out: Cmax, Geometric LSM
Description: An open-label study in 16 healthy volunteers to evaluate the pharmacokinetic effect of a high fat (˜50% of total caloric content of the meal), high calorie meal on the solid solution capsule of Compound 1 in a 50:50 mixture of macrogol-40-glycerol hydroxystearate:PEG-4000. Subjects received a single oral dose of 30 mg Compound 1, given in the fed or fasted state. Blood samples were collected for measurement of Compound 1 plasma concentrations.

[5] = capsule in 50:50 macrogol-40-glycerol hydroxystearate:PEG-4000, Average of T1-T3
[6] = capsule in 50:50 macrogol-40-glycerol hydroxystearate:PEG-4000, trial T1
[7] = capsule in 50:50 macrogol-40-glycerol hydroxystearate:PEG-4000, trial T2
[8] = capsule in 50:50 macrogol-40-glycerol hydroxystearate:PEG-4000, trial T3
[9] = capsule in 100% macrogol-40-glycerol hydroxystearate, Average of T1-T3
[10] = capsule in 100% macrogol-40-glycerol hydroxystearate, trial T1
[11] = capsule in 100% macrogol-40-glycerol hydroxystearate, trial T2
[12] = capsule in 100% macrogol-40-glycerol hydroxystearate, trial T3
[13] = healthy volunteers, 30 mg single oral dose, 100 × (test/reference)
[14] = high fat, high calorie meal with 30 mg Compound 1
[15] = po, healthy volunteers, 30 mg single oral dose, 50:50 solid solution capsule, Fasted
[16] = po, healthy volunteers, 30 mg single oral dose, 50:50 solid solution capsule, Fed (high fat, high calorie meal)

## Cc1ccc(NC(=O)[C@H]2CCCN(C(=O)c3c(C)cccc3F)[C@H]2c2ccc(NC3CCCC3)cc2)cc1C(F)(F)F [Compound 1, (2R,3 S)-2-(4-(cyclopentylamino)phenyl)-1-(2-fluoro-6-methylbenzoyl)-N-(4-methyl-3-(trifluoromethyl)phenyl)piperidine-3-carboxamide]
[1]; Fasted-State Simulated Intestinal Fluid (FaSSIF), FaSSIF, pH 6.5, actual pH 6.47
  solubility: 0.656 µg/mL (≈ 1.13 µM)
[1]; Fed-State Simulated Intestinal Fluid (FeSSIF), FeSSIF, pH 5, actual pH 4.98
  solubility: 2.09 µg/mL (≈ 3.6 µM)
[1]; Fed-State Simulated Intestinal Fluid (FeSSIF), FeSSIF, pH 6.5, actual pH 6.47
  solubility: 1.96 µg/mL (≈ 3.37 µM)
[1]; Simulated Gastric Fluid (SGF), simulated gastric fluid, SGF, pH 1.6, actual pH 1.39
  solubility: 2.65 µg/mL (≈ 4.55 µM)
[1]; Water, actual pH 5.92
  solubility: 0.008 µg/mL (≈ 0.0138 µM)
[1]; across full spectrum of pH range, including the biorelevant media and water
  aqueous solubility: very poor aqueous solubility
[1]; aqueous buffer, pH 2 Buffer, actual pH 1.99
  solubility: 0.863 µg/mL (≈ 1.48 µM)
[1]; aqueous buffer, pH 3 Buffer, actual pH 3.01
  solubility: 0.101 µg/mL (≈ 0.174 µM)
[1]; aqueous buffer, pH 4 Buffer, actual pH 4.01
  solubility: 0.013 µg/mL (≈ 0.0224 µM)
[1]; aqueous buffer, pH 5 Buffer, actual pH 5.00
  solubility: 0.021 µg/mL (≈ 0.0361 µM)
[1]; aqueous buffer, pH 6 Buffer, actual pH 6.00
  solubility: 0.021 µg/mL (≈ 0.0361 µM)
[1]; aqueous buffer, pH 7 Buffer, actual pH 7.03
  solubility: 0.053 µg/mL (≈ 0.0911 µM)
[1]; aqueous buffer, pH 8 Buffer, actual pH 8.00
  solubility: 0.068 µg/mL (≈ 0.117 µM)
[1]; aqueous buffer, pH 9 Buffer, actual pH 9.00
  solubility: 0.101 µg/mL (≈ 0.174 µM)
[1]; aqueous buffer, pH 10 Buffer, actual pH 9.95
  solubility: 0.03 µg/mL (≈ 0.0516 µM)
[1]; simulated gastric fluid, 0.1N HCl, actual pH 1.05
  solubility: 8.05 µg/mL (≈ 13.8 µM)
[2]; Captisol in water (40% w/v), aqueous with cosolvent or surfactant or cyclodextrin, thermodynamic from solid, Captisol in water (40% w/v), read-out: Solubility
  solubility: 10 µg/mL (≈ 17.2 µM)
[2]; Captisol in water (40% w/v), overnight
  Additional Observations: API undissolved overnight even with warming to 60°.
[2]; Cavitron W7 HP5 in water (40% w/v)
  solubility: 50 µg/mL (≈ 86 µM)
[2]; Cavitron W7 HP5 in water (40% w/v), overnight
  Additional Observations: API undissolved overnight even with warming to 60°.
[2]; PEG400/EtOH/Cremophor EL (50/45/5 v/v), prepared 20 mg/mL formulation
  Additional Observations: A translucent solution with floating fine particles.
[2]; PEG400/EtOH/Cremophor EL (70/25/5 v/v), prepared 20 mg/mL formulation
  Additional Observations: A translucent solution.
[2]; PEG400/EtOH/Solutol HS 15 (50/40/10 v/v), organic solvent or mixture, thermodynamic from solid, PEG400/EtOH/Solutol HS 15 (50/40/10 v/v), visually, against 30 mg/mL control solution, read-out: Solubility
  solubility: ~30000 µg/mL (≈ 51600 µM)
[2]; PEG400/EtOH/Solutol HS 15 (50/40/10 v/v), ~30 mg/mL, overnight
  Additional Observations: few API particles left overnight, did not attempt
[2]; PEG400/EtOH/Solutol HS 15 (50/45/5 v/v), organic solvent or mixture, thermodynamic from solid, PEG400/EtOH/Solutol HS 15 (50/45/5 v/v), visually, against 30 mg/mL control solution, read-out: Solubility
  solubility: ~30000 µg/mL (≈ 51600 µM)
[2]; PEG400/EtOH/Solutol HS 15 (50/45/5 v/v), ~30 mg/mL, overnight
  Additional Observations: API particles left overnight, did not attempt cranberry
[2]; PEG400/EtOH/Solutol HS 15 (70/20/10 v/v), 20.4 mg/mL, in cranberry juice
  Additional Observations: Slow to precipitate with addition to cranberry juice.
[2]; PEG400/EtOH/Solutol HS 15 (70/20/10 v/v), organic solvent or mixture, PEG400/EtOH/Solutol HS 15 (70/20/10 v/v), read-out: Solubility
  solubility: 20400 µg/mL (≈ 35100 µM)
[2]; PEG400/EtOH/Solutol HS 15 (70/25/5 v/v), 20.0 mg/mL, in cranberry juice
  Additional Observations: Precipitate forms in cranberry juice.
[2]; PEG400/EtOH/Solutol HS 15 (70/25/5 v/v), organic solvent or mixture, PEG400/EtOH/Solutol HS 15 (70/25/5 v/v), read-out: Solubility
  solubility: 20000 µg/mL (≈ 34400 µM)
[2]; PEG400/EtOH/Transcutol P (50/40/10 v/v), organic solvent or mixture, PEG400/EtOH/Transcutol P (50/40/10 v/v), second listing, read-out: Solubility
  solubility: 20200 µg/mL (≈ 34700 µM)
[2]; PEG400/EtOH/Transcutol P (50/40/10 v/v), organic solvent or mixture, thermodynamic from solid, PEG400/EtOH/Transcutol P (50/40/10 v/v), visually, against 30 mg/mL control solution, read-out: Solubility
  solubility: ~30000 µg/mL (≈ 51600 µM)
[2]; PEG400/EtOH/Transcutol P (50/40/10 v/v), ~30 mg/mL, overnight
  Additional Observations: few API particles left overnight, did not attempt
[2]; PEG400/EtOH/Transcutol P (50/45/5 v/v), organic solvent or mixture, PEG400/EtOH/Transcutol P (50/45/5 v/v), second listing, read-out: Solubility
  solubility: 19900 µg/mL (≈ 34200 µM)
[2]; PEG400/EtOH/Transcutol P (50/45/5 v/v), organic solvent or mixture, PEG400/EtOH/Transcutol P (50/45/5 v/v), visually, against 30 mg/mL control solution, read-out: Solubility
  solubility: ~30000 µg/mL (≈ 51600 µM)
[2]; PEG400/EtOH/Transcutol P (50/45/5 v/v), ~30 mg/mL, overnight
  Additional Observations: few API particles left overnight, did not attempt
[2]; PEG400/Propylene Glycol (50/50 v/v), organic solvent or mixture, PEG400/Propylene Glycol (50/50 v/v), read-out: Solubility
  solubility: 10900 µg/mL (≈ 18700 µM)
[2]; PEG400/Propylene Glycol (50/50 v/v), overnight, then addition of cranberry juice
  Additional Observations: Somewhat dissolved overnight, however, precipitation
[2]; control solution of PEG400/EtOH (50/50% v/v) with 30 mg/mL
  solubility in control vehicle: Compound 1 is not fully soluble in control vehicle. A few
[3]; [5]
  AUC(0-inf): 1630 ng·h/mL
  AUC(0-t): 1580 ng·h/mL
  Cmax: 429 ng/mL
  MRT: 4.7 h
  Tmax: 1.3 h
[3]; [6]
  AUC(0-inf): 1310 ng·h/mL
  AUC(0-t): 1260 ng·h/mL
  Cmax: 411 ng/mL
  MRT: 4.8 h
  Tmax: 1 h
[3]; [7]
  AUC(0-inf): 1440 ng·h/mL
  AUC(0-t): 1390 ng·h/mL
  Cmax: 396 ng/mL
  MRT: 4.5 h
  Tmax: 1 h
[3]; [8]
  AUC(0-inf): 2150 ng·h/mL
  AUC(0-t): 2080 ng·h/mL
  Cmax: 481 ng/mL
  MRT: 4.8 h
  Tmax: 2 h
[3]; [9]
  AUC(0-inf): 2440 ng·h/mL
  AUC(0-t): 2370 ng·h/mL
  Cmax: 607 ng/mL
  MRT: 4.8 h
  Tmax: 2.3 h
[3]; [10]
  AUC(0-inf): 2660 ng·h/mL
  AUC(0-t): 2470 ng·h/mL
  Cmax: 590 ng/mL
  MRT: 7.1 h
  Tmax: 2 h
[3]; [11]
  AUC(0-inf): 3020 ng·h/mL
  AUC(0-t): 3000 ng·h/mL
  Cmax: 604 ng/mL
  MRT: 4.2 h
  Tmax: 4 h
[3]; [12]
  AUC(0-inf): 1660 ng·h/mL
  AUC(0-t): 1650 ng·h/mL
  Cmax: 628 ng/mL
  MRT: 3.2 h
  Tmax: 1 h
[4]; [13]
  AUC0-inf, GMR (fed/fasted): 171.60%
  AUC0-t, GMR (fed/fasted): 170.68%
  Cmax, GMR (fed/fasted): 107.98%
  Tmax, GMR (fed/fasted): 235.29%
[4]; [14]
  increase of Cmax, fed compared to fasted: 8%
  increase of plasma Compound 1 AUC, fed compared to fasted: approximately 70%
[4]; oral, high fat, high calorie meal with 30 mg Compound 1, read-out: delay of Tmax in the fed population
  Tmax: ~3 h
[4]; [15]
  AUC(0-inf): 959 ng·h/mL
  AUC(0-t): 826 ng·h/mL
  Cmax: 119 ng/mL
[4]; po, healthy volunteers, 30 mg single oral dose, 50:50 solid solution capsule, Fasted, read-out: Tmax, untransformed LSM
  Tmax: 2.29 h
[4]; [16]
  AUC(0-inf): 1650 ng·h/mL
  AUC(0-t): 1410 ng·h/mL
  Cmax: 128 ng/mL
[4]; po, healthy volunteers, 30 mg single oral dose, 50:50 solid solution capsule, Fed (high fat, high calorie meal), read-out: Tmax, untransformed LSM
  Tmax: 5.38 h
